Tests used:
rats = experiment: Residual lipid levels in liver and spleen of rats (UPLC-MS quantification); type: in vivo, rat; settings: rats, 2 mpk, 48 h; assuming 300 g rat and 15 g liver
Experimental: At 48 h liver tissue was harvested for lipid quantification. To pre-weighed tissues, Milli-Q water was added (900 μL water per 100 mg tissue). Tissues were homogenized using an Omni probe homogenizer until uniform. 50 μL of samples and matrix calibration standards were aliquoted into a 96-well plate. 50 μL of blank matrix for matrix blanks and control blanks were aliquoted. 400 μL IS spiking solution were manually added to all samples except matrix blanks. 400 μL of 50:50 ACN:IPA were manually added to matrix blanks. The plate was covered and the samples vortexed and centrifuged for 5 minutes at >3000 rpm. 200 μL of the samples were transferred into a clean 96-well plate for analysis. Samples were analyzed on a Waters Acquity UPLC using a Higgins Analytical Clipeus C8 column ([…], 30×2.1 mm) and a gradient of either 70-95% or 60-95% (Mobile Phase A: 5 mM ammonium formate in 50:50:1 H2O:MeOH:formic acid; Mobile Phase B: 5 mM ammonium formate in 100:1 MeOH:formic acid) over 1.3 min at 1.2 mL/min (column temperature 55° C.). Detection was based on electrospray ionization (ESI) in positive mode using a Sciex API5500 Mass Spectrometer.
The expression of hEPO in rats intravenously administered a nanoparticle composition at a dose of 0.2 mpk or 2.0 mpk was measured at 6 hours. Table 16 summarize the ratio of hEPO expression levels using various nanoparticle compositions as compared to the hEPO expression level using MC3 formulation and the lipid levels in the liver measured 48 hours after administration, as described above. Tables 17 and 18 summarize the lipid levels in the liver and spleen measured 48 hours after administration of Compounds 28, 33, 53, and 54. Liver and spleen levels represent the average values calculated for 3 rats in each group. As is shown in Tables 17 and 18, less than 10% of Compounds 28, 33, 53, and 54 remained in the liver after 48 hours, while greater than 60% of MC3 remained.
Table 19 summarizes the hEPO expression, IP-10 induction, liver and spleen levels, and alanine aminotransferase (ALT) and aspartate aminotransferase (AST) measured upon intravenous administration of formulations including Compounds 48, 49, and 50 to rat at 0.2 and 2 mpk and hEPO mRNA. hEPO concentrations were measured 6 hours after administration, while cytokine induction and liver and spleen levels were measured 48 hours after administration. hEPO and IP-10 concentrations are presented in pg/ml, while liver levels are provided in ng/g. ALT and AST levels are presented in international units.
The expression of hEPO induced by intravenous administration to rats of nanoparticle compositions at various doses was measured at 2, 4, 6, 8, 24, and 48 hour time points. FIGS. 3-6 respectively summarize the hEPO expression measured upon intravenous administration of formulations including Compounds 26, 18, 25, and MC3 to rat at various doses. The lipid levels of Compound 26 in the liver after 48 hours were about 19%.
The expression of hEPO and lipid levels in the liver and spleen in rats intravenously administered a nanoparticle composition at a dose of 0.2 mpk was measured at various timepoints. Compounds 18 and 25 were selected for comparison with MC3. Lipids were formulated according to the standard MC3 formulation described above. Rats were administered intravenously a single 0.2 mpk dose and expression monitored at 0.25, 0.5, 1, 2, 4, 8, 24, and 48 hours after administration.

mice = experiment: Luc expression (total flux) after intramuscular administration; type: in vivo; settings: 6 hours after intramuscular administration, Luc mRNA and H10 mRNA
Experimental: The numbers 1-7 in this figure correspond to MC3, Compounds 168-170, and 173-175 respectively.
In order to monitor how effectively various nanoparticle compositions deliver therapeutic and/or prophylactics to targeted cells, different nanoparticle compositions including a particular therapeutic and/or prophylactic (for example, a modified or naturally occurring RNA such as an mRNA) are prepared and administered to rodent populations. Mice are intravenously, intramuscularly, intraarterially, or intratumorally administered a single dose including a nanoparticle composition with a formulation such as those provided in Example 3. In some instances, mice may be made to inhale doses. Dose sizes may range from 0.001 mg/kg to 10 mg/kg, where 10 mg/kg describes a dose including 10 mg of a therapeutic and/or prophylactic in a nanoparticle composition for each 1 kg of body mass of the mouse. A control composition including PBS may also be employed.
The total flux (measured by area under the curve, AUC) induced by administration of a formulation including a given lipid relative to that induced by administration of a formulation including MC3 was also measured for several lipids.
Sample formulations including both modified luciferase (Luc) mRNA and H10 mRNA were prepared and administered intramuscularly and the resulting expression and immunogenicity were evaluated simultaneously. Formulations including compounds according to Formula (I), (IA), (II), (IIa), (IIb), (IIc), (IId) or (IIe) were prepared and administered at doses of 0.001 and 0.01 mpk (e.g., doses of 0.0005 mpk of a formulation including Luc mRNA and a formulation including H10 mRNA or doses of 0.005 mpk of a formulation including Luc mRNA and a formulation including H10 mRNA).
Sample formulations including modified luciferase (Luc) mRNA prepared and administered intramuscularly and the resulting expression and immunogenicity were evaluated simultaneously. Formulations including compounds according to Formula (I), (IA), (II), (IIa), (IIb), (IIc), (IId) or (IIe) were prepared and administered at dose of […] 0.01 mpk.
The fluxes measured upon intravenous and intramuscular administration are compared in Table 6. Fluxes are presented as fold increase over that measured for MC3 formulations.

[1] = Particle size and polydispersity index of nanoparticle compositions (Zetasizer Nano ZS); type: physicochemical; settings: for PDI: nanoparticle composition 50:10:38.5:1.5 mol % (Table 1A); for Size (nm): nanoparticle composition lipid:DSPC:cholesterol:PEG-DMG 50:10:38.5:1.5 mol %, mRNA encoding Luc or hEPO (Table 1A)
Source text: Nanoparticle compositions may be characterized by a variety of methods. For example, microscopy (e.g., transmission electron microscopy or scanning electron microscopy) may be used to examine the morphology and size distribution of a nanoparticle composition. Dynamic light scattering or potentiometry (e.g., potentiometric titrations) may be used to measure zeta potentials. Dynamic light scattering may also be utilized to determine particle sizes. Instruments such as the Zetasizer Nano ZS (Malvern Instruments Ltd, Malvern, Worcestershire, UK) may also be used to measure multiple characteristics of a nanoparticle composition, such as particle size, polydispersity index, and zeta potential.
A Zetasizer Nano ZS (Malvern Instruments Ltd, Malvern, Worcestershire, UK) can be used to determine the particle size, the polydispersity index (PDI) and the zeta potential of the nanoparticle compositions in 1×PBS in determining particle size and 15 mM PBS in determining zeta potential.
(§1) Initial studies were performed to compare the delivery efficiency of nanoparticle compositions including various compounds according to Formula (I), (IA), (II), (IIa), (IIb), (IIc), (IId) or (IIe). The cationic lipid MC3 is a current standard in the art. Accordingly, the standard MC3 formulation including about 50 mol % MC3, about 10 mol % DSPC, about 38.5 mol % cholesterol, and about 1.5 mol % PEG-DMG was used as a basis for this study. Nanoparticle compositions including DSPC as a phospholipid, cholesterol as a structural lipid, PEG-DMG as a PEG lipid, an RNA, and a compound according to Formula (I), (IA), (II), (IIa), (IIb), (IIc), (IId) or (IIe) selected from Compounds 1-159, 168-170, and 173-175 were prepared according to or via methods similar to those described in Examples 1 and 2. The ratios of the lipids were 50:10:38.5:1.5 mol % for the lipid according to Formula (I), (IA), (II), (IIa), (IIb), (IIc), (IId) or (IIe):DSPC:cholesterol:PEG-DMG. The RNA used was an mRNA encoding G5 luciferase (Luc) or G5 hEPO. Tables 1A-1B summarize the content and characteristics of the formulations. […]

[2] = Encapsulation of RNA by the nanoparticle composition (QUANT-IT RIBOGREEN RNA assay); type: physicochemical; settings: nanoparticle composition 50:10:38.5:1.5 mol % (Table 1A)
Source text: The efficiency of encapsulation of a therapeutic and/or prophylactic describes the amount of therapeutic and/or prophylactic that is encapsulated or otherwise associated with a nanoparticle composition after preparation, relative to the initial amount provided. The encapsulation efficiency is desirably high (e.g., close to 100%). The encapsulation efficiency may be measured, for example, by comparing the amount of therapeutic and/or prophylactic in a solution containing the nanoparticle composition before and after breaking up the nanoparticle composition with one or more organic solvents or detergents. Fluorescence may be used to measure the amount of free therapeutic and/or prophylactic (e.g., RNA) in a solution. For the nanoparticle compositions described herein, the encapsulation efficiency of a therapeutic and/or prophylactic may be at least 50%, for example 50%, 55%, 60%, 65%, 70%, 75%, 80%, 85%, 90%, 91%, 92%, 93%, 94%, 95%, 96%, 97%, 98%, 99%, or 100%. In some embodiments, the encapsulation efficiency may be at least 80%. In certain embodiments, the encapsulation efficiency may be at least 90%.
For nanoparticle compositions including an RNA, a QUANT-IT™ RIBOGREEN® RNA assay (Invitrogen Corporation Carlsbad, CA) can be used to evaluate the encapsulation of an RNA by the nanoparticle composition. The samples are diluted to a concentration of approximately […] in a TE buffer solution (10 mM Tris-HCl, 1 mM EDTA, pH 7.5). 50 μL of the diluted samples are transferred to a polystyrene 96 well plate and either 50 μL of TE buffer or 50 μL of a 2% Triton X-100 solution is added to the wells. The plate is incubated at a temperature of 37° C. for 15 minutes. The RIBOGREEN® reagent is diluted 1:100 in TE buffer, and 100 μL of this solution is added to each well. The fluorescence intensity can be measured using a fluorescence plate reader (Wallac Victor 1420 Multilablel Counter; Perkin Elmer, Waltham, MA) at an excitation wavelength of, for example, about 480 nm and an emission wavelength of, for example, about 520 nm. The fluorescence values of the reagent blank are subtracted from that of each of the samples and the percentage of free RNA is determined by dividing the fluorescence intensity of the intact sample (without addition of Triton X-100) by the fluorescence value of the disrupted sample (caused by the addition of Triton X-100).
as §1

Row | SMILES | % Lipid Remaining in liver, 48 h* 2 mpk (rats) | PDI [1] | Size (nm) [1] | EE (%) [2] | Total flux (p/s) 0.001 mpk Dose (mice) | Total flux (p/s) 0.01 mpk Dose (mice)
1 | CCCCCCCCCOC(=O)CCCN(CCO)CCCCCCCC(=O)OC(CCCCCCCC)CCCCCCCC [Compound 26, Heptadecan-9-yl 8-((2-hydroxyethyl)(4-(nonyloxy)-4-oxobutyl)amino)octanoate] | 20% |  |  |  | 3.90E+06 p/s | 6.13E+07 p/s
2 | CCCCCCCCCOC(=O)CCCCCCCN(CCCCCCCC(=O)OC(CCCCCCCC)CCCCCCCC)CCCN/C(=N/C#N)N(C)C [Compound 168, Heptadecan-9-yl (Z)-8-((3-(2-cyano-3,3-dimethylguanidino)propyl)(8-(nonyloxy)-8-oxooctyl)amino)octanoate] |  | 0.1 | 80.7 nm | 94.35% |  | 

Second part, led by results:

Row | % Lipid Remaining in liver, 48 h* 2 mpk (rats) | PDI [1] | Size (nm) [1] | EE (%) [2] | SMILES | Total flux (p/s) 0.001 mpk Dose (mice) | Total flux (p/s) 0.01 mpk Dose (mice)
3 | 12.6% | 0.110 | 73.1 nm |  | CCCCCCCCC(CC)OC(=O)CCCCCCCN(CCO)CCCCCCCC(=O)OC(CCCCCCCC)CCCCCCCC (stereo not drawn) [Compound 49, heptadecan-9-yl 8-((2-hydroxyethyl)(8-oxo-8-(undecan-3-yloxy)octyl)amino)octanoate] |  | 
4 | 15.9% |  |  |  | CCCCCCCCC(CCC)OC(=O)CCCCCCCN(CCO)CCCCCCCC(=O)OC(CCCCCCCC)CCCCCCCC (stereo not drawn) [Compound 50, dodecan-4-yl 8-((8-(heptadecan-9-yloxy)-8-oxooctyl)(2-hydroxyethyl)amino)octanoate] | 6.56E+05 p/s | 1.13E+07 p/s
5 | 7.22% |  |  |  | CCCCCCCCC(C)OC(=O)CCCCCCCN(CCO)CCCCCCCC(=O)OC(CCCCCCCC)CCCCCCCC (stereo not drawn) [Compound 48, decan-2-yl 8-((8-(heptadecan-9-yloxy)-8-oxooctyl)(2-hydroxyethyl)amino)octanoate] | 4.69E+05 p/s | 8.78E+06 p/s
6 |  | 0.11 | 60.1 nm | 96.1% | CCCCCCCCC(CCCCCCCC)OC(=O)CCCCCCCN(CCO)CCCC(=O)OC(CCCCC)CCCCCCCC (stereo not drawn) [Compound 71, Heptadecan-9-yl 8-((2-hydroxyethyl)(4-oxo-4-(tetradecan-6-yloxy)butyl)amino)octanoate] |  | 

— patent US12404232B2, “Compounds and compositions for intracellular delivery of therapeutic agents” (ModernaTX, Inc., priority 2015, dated 2025)
